Data: ChEMBL document CHEMBL1153659, “Target directed enediyne prodrugs: hER and AhR degradation by a synthetic oxo-enediyne” (1996)

Test system: T47D
Assay: Compound was tested for growth inhibition against T-47D-Y cells at 10e-4 M
Format: functional
Conditions: Homo sapiens

C1#CCO[C@H]2CCCC[C@@H]2C#C/C=C\1
inhibition at 100 µM: 83%
